# Source: publication PMC7845594, “Novel Immune Modulators Enhance Caenorhabditis elegans Resistance to Multiple Pathogens” (mSphere, 2021)
# Tested on: C. elegans transcriptome
# Test: Transcriptome profiling (Affymetrix microarrays), differentially expressed genes
# Assay type: in vivo, Caenorhabditis elegans
# Experimental: To gain additional insight into the effect of LK molecules on C. elegans, young-adult, wild-type worms were treated with each drug at 100 µM for 8 h in the absence of pathogen. RNA was collected, and transcriptome profiling was performed.
# Data were determined using Affymetrix microarrays, as described in Materials and Methods. Download Table S3, XLSX file, 0.07 MB.
# Transcriptome profiling was performed on ∼6,000 wild-type, young adult worms incubated with either LK molecules or DMSO for 8 h. RNA isolation was performed using TRIzol extraction, followed by cleanup using RNeasy columns according to the manufacturer’s protocol. Each condition was analyzed in triplicate. Microarray data have been deposited in the GEO database, accession number GSE137516. […] Clustering and generation of the heat map was performed using Cluster 3.0 ([98]) and Treeview ([99]), respectively. Fold change of genes were normalized to average fold change of that gene over all clustered conditions. Genes and conditions were clustered using Euclidean distance and average linkages. […] Microarray data for non-LK molecules were collected from GEO omnibus. WormEXP was used as a secondary method for confirming statistical significance of potential pathways stimulated by each of the LK molecules ([100]). Gene ontologies were generated using DAVID ([101], [102]).
# [1] = Downregulated genes, Affy_ID 171867_x_at
smiles,measurement,setting,value
CNC(=O)Oc1c(Br)cc2sc(=O)oc2c1Br [LK34],Fold Change,"Affy_ID 171867_x_at, listed under genes C09B9.6, F36H12.7, K07F5.1, R05F9.13, R13H9.2, R13H9.4, T13F2.10, T13F2.11, Y59E9AR.1, Y59E9AR.7, ZK354.1, downregulated genes",0.2366
same,"Fold Change, gene ZK354.1",[1],0.2366
same,"Fold Change, gene ZK354.10",[1],0.2366
same,"Fold Change, gene ZK354.11",[1],0.2366
same,"Fold Change, gene ZK354.4",[1],0.2366
same,"Fold Change, gene ZK354.5",[1],0.2366
same,"Fold Change, gene ZK525.1","Downregulated genes, Affy_ID 172214_x_at",0.3205
same,"Fold Change, gene ZK484.8","Downregulated genes, Affy_ID 172381_x_at",0.3874
same,"Fold Change, gene ZK546.3","Downregulated genes, Affy_ID 172798_x_at",0.1968
same,"Fold Change, gene ZK131.7","Downregulated genes, Affy_ID 172871_x_at",0.3375
same,"Fold Change, gene ZK546.6","Downregulated genes, Affy_ID 172900_x_at",0.1968
same,"Fold Change, gene ZK669.2","Downregulated genes, Affy_ID 179491_at",0.229
same,"Fold Change, gene ZK550.2","Downregulated genes, Affy_ID 179513_at",0.3085
same,"Fold Change, gene ZK484.5","Downregulated genes, Affy_ID 182193_at",0.3399
same,"Fold Change, gene ZK593.1","Downregulated genes, Affy_ID 189095_at",0.4248
same,"Fold Change, gene ZK666.7","Downregulated genes, Affy_ID 194066_s_at",0.02705
same,Fold Change,"Gene C05C12.3, Affy_ID 183355_s_at, downregulated genes",0.4055
same,Fold Change,"Gene M163.1, Affy_ID 177298_at, downregulated genes",0.426
same,Fold Change,"Gene R01E6.3, Affy_ID 189628_at, downregulated genes",0.3684
same,Fold Change,"Gene R03E9.1, Affy_ID 193723_s_at, downregulated genes",0.2017
same,Fold Change,"Gene R03E9.3, Affy_ID 174840_s_at, downregulated genes",0.4768
same,Fold Change,"Gene R05F9.3, Affy_ID 172725_x_at, downregulated genes",0.4019
same,Fold Change,"Gene R05F9.8, Affy_ID 172724_x_at, downregulated genes",0.2519
same,Fold Change,"Gene R05G6.10, Affy_ID 192058_at, downregulated genes",0.3616
same,Fold Change,"Gene R12C12.1, Affy_ID 190616_at, downregulated genes",0.2442
same,Fold Change,"Gene R12E2.9, Affy_ID 180698_s_at, downregulated genes",0.3881
same,Fold Change,"Gene R52.3, Affy_ID 177369_at, downregulated genes",0.4244
same,Fold Change,"Gene T01C3.4, Affy_ID 188106_at, downregulated genes",0.02189
same,Fold Change,"Gene T02B11.3, Affy_ID 174051_s_at, downregulated genes",0.4182
same,Fold Change,"upregulated gene T13H2.4, Affy_ID 183082_s_at",2.522
same,Fold Change,"upregulated gene T14F9.3, Affy_ID 173287_s_at",3.284
same,Fold Change,"upregulated gene T14G8.1, Affy_ID 193596_s_at",3.752
same,Fold Change,"upregulated gene T15B7.3, Affy_ID 188456_at",3.308
same,Fold Change,"upregulated gene T19B10.2, Affy_ID 181715_s_at",5.383
same,Fold Change,"upregulated gene T20F7.6, Affy_ID 173076_s_at",3.038
same,Fold Change,"upregulated gene T21C12.2, Affy_ID 193009_at",2.072
same,Fold Change,"upregulated gene T21E3.3, Affy_ID 173760_s_at",2.777
same,Fold Change,"upregulated gene T22B7.3, Affy_ID 181552_at",4.555
same,Fold Change,"upregulated gene T22B7.7, Affy_ID 173688_s_at",13.7199
same,Fold Change,"upregulated gene T22F3.3, Affy_ID 176676_s_at",2.752
same,Fold Change,"upregulated gene T24B8.3, Affy_ID 175022_s_at",3.173
same,Fold Change,"upregulated gene T24B8.5, Affy_ID 178297_at",134.612
same,Fold Change,"upregulated gene T24C4.4, Affy_ID 182815_at",2.661
same,Fold Change,"upregulated gene T25G12.5, Affy_ID 174581_s_at",2.002
same,Fold Change,"upregulated gene T26C5.1, Affy_ID 190852_at",2.137
same,Fold Change,"upregulated gene T27A3.2, Affy_ID 192961_at",2.203
same,Fold Change,"upregulated gene T27E4.3, Affy_ID 172901_x_at",16.0293
same,Fold Change,"upregulated gene T28D9.3, Affy_ID 187493_at",2.783
same,Fold Change,"upregulated gene VZK822L.1, Affy_ID 187997_s_at",2.806
same,Fold Change,"upregulated gene W01F3.2, Affy_ID 173274_s_at",7.505
same,Fold Change,"upregulated gene W02A2.7, Affy_ID 193943_at",2.753
same,Fold Change,"upregulated gene W03C9.7, Affy_ID 194039_s_at",2.373
same,Fold Change,"upregulated gene W03F8.10, Affy_ID 174843_at",5.242
same,Fold Change,"upregulated gene W03F9.4, Affy_ID 189587_s_at",16.8516
same,Fold Change,"upregulated gene W04A8.4, Affy_ID 178654_s_at",22.7121
same,Fold Change,"upregulated gene W04B5.1, Affy_ID 180966_s_at",3.157
same,Fold Change,"upregulated gene W04B5.3, Affy_ID 173153_s_at",2.678
same,Fold Change,"upregulated gene W05G11.6, Affy_ID 192581_s_at",4.517
